Read-outs that look alike come from different tables or passages of the source.

The results in this text go back to US20070274951A1, “Combinations comprising HCV protease inhibitor(s) and HCV polymerase inhibitor(s), and methods of treatment related thereto” (priority 2006, published 2007).

This assay concerns HCV replicon RNA in replicon cells. Description: Replicon RNA response to antiviral agent(s), real time PCR (Taqman assay). The format is cell-based. Particulars: Hepatitis C virus, read-out: Inhibitor IC50 in replicon cells. The procedure: Replicon RNA response to antiviral agent(s) was examined using the HCV protease inhibitor Formula Ia alone or in combination with HCV NS5B polymerase inhibitors 2′-methyl-adenosine, benzothiadiazine, indole-N-acetamide, or NM 107. Likewise, replicon RNA response to antiviral agent(s) was examined using the HCV protease inhibitor SCH 446211 (SCH 6) alone or in combination with HCV polymerase inhibitor ribavirin.
In brief, replicon cells were seeded at 4000 cells/well in 96-well collagen 1-coated Biocoat plates (Becton Dickinson). At 24 hrs post-seeding, replicon cells were treated with the requisite anti-viral agent(s). The final concentration of DMSO was 0.5%, fetal bovine serum was 5%, and G418 (an aminoglycoside used as a selective agent) was 500 μg/ml. Media and anti-viral agent(s) were refreshed daily for 3 days, at which point the cells were washed with PBS and lysed in 1× cell lysis buffer (Ambion cat #8721). The replicon RNA level was measured using real time PCR (Taqman assay). The ampicon was located in NS5B. […] (SEQ ID NO: 2); the probe sequence was FAM-labeled […] (SEQ ID NO: 3). GAPDH RNA was used as endogenous control and was amplified in the same reaction as NS5B (multiplex PCR) using primers and VIC-labeled probe recommended by the manufacture (PE Applied Biosystem). The real-time RT-PCR reactions were run on ABI PRISM 7900HT Sequence Detection System using the following program: 48° C. for 30 min, 95° C. for 10 min, 40 cycles of 95° C. for 15 sec, 60° C. for 1 min. The ΔCT values (CT5B−CTGAPDH) were plotted against drug concentration and fitted to the sigmoid dose response model using SAS (SAS Institute Inc.) or Graphpad PRISM software (Graphpad Software Inc.). The IC50 is the drug dose necessary to achieve ΔCT=1 over the projected baseline. […] Alternatively, to quantitate the absolute amount replicon RNA, a standard curve was established by including serially diluted T7 transcripts of replicon RNA in the Taqman assay. All Taqman reagents were from PE Applied Biosystem. […]

Consider `CC(C)(C)NC(=O)N[C@H](C(=O)N1CC2C([C@H]1C(=O)NC(CC1CCC1)C(=O)C(N)=O)C2(C)C)C(C)(C)C` (stereo partly drawn) [Formula Ia], for which the IC50 by setting is: (cells selected by: Formula Ia + 2′-methyl-adenosine) 3500 nM; (cells selected by: Formula Ia + Indole-N-acetamide) 2400 nM; (cells selected by: No treatment) 300 nM.

A word on the IC50: it is the concentration needed to halve the response being measured.
